# Earlier results in patent publication US4868155A, “Dipeptidyl 4-0-,6-0-acyl-2-amino-2-deoxy-D-glucose compositions and methods of use in AIDS-immunocompromised human hosts” (Merck & Co., Inc., priority 1987, dated 1989).
# Read-outs that look alike come from different tables or passages of the source.
# Assays:
# [1] = tested on: Mycobacterium avium intracellulare; settings: AIDS patients infected with Mycobacterium avium intracellulare
# [2] = in vivo
# AIDS related virus = settings: for clinical benefit (symptoms, immune function) in AIDS / ARC patients: clinical trials; for virus replication in humans: patients
# [3] = tested on: reverse transcriptase in several retroviruses; settings: in vitro
compound,measurement,setting,value
"CO[C@H]1/C=C/O[C@@]2(C)Oc3c(C)c(O)c4c(c3C2=O)C2=NC3(CCN(CC(C)C)CC3)NC2=C(NC(=O)/C(C)=C\C=C\[C@H](C)[C@H](O)[C@@H](C)[C@@H](O)[C@@H](C)[C@H](OC(C)=O)[C@@H]1C)C4=O [Ansamycin, rifabutin]",efficacy against opportunistic infection,[1],some efficacy
"Cc1cn([C@H]2C[C@H](N=[N+]=[N-])[C@@H](CO)O2)c(=O)[nH]c1=O [Azidothymidine, 3' azido 3'-deoxythymidine]",oral absorption,[2],Well absorbed orally
CC(C)(N1CC1C#N)N1CC1C(N)=O (stereo not shown) [Azimexon],"clinical benefit (symptoms, immune function) in AIDS / ARC patients",AIDS related virus,improvements in symptoms and immune function in patients with ARC but not AIDS
same,toxicity / side effects,patients,mild hemolysis
"CC(C)(S)[C@@H](N)C(=O)O [D Penicillamine, 3-mercapto D valine]",virus replication in humans,AIDS related virus,Inhibits HIV reproduction in humans
same,T cell levels,13 AIDS patients with perpetually swollen glands,temporarily depressed T cell levels
"O=C(O)P(=O)(O)O [Foscarnet, trisodium phosphonoformate]",toxicity / side effects,"human, in vivo",serious side effects
CC(=O)Nc1ccc(C(=O)O)cc1.CC(=O)Nc1ccc(C(=O)O)cc1.CC(=O)Nc1ccc(C(=O)O)cc1.CC(O)CN(C)C.CC(O)CN(C)C.CC(O)CN(C)C.O=c1[nH]cnc2c1ncn2[C@@H]1O[C@H](CO)[C@@H](O)[C@H]1O [Inosine granobex],"clinical benefit (symptoms, immune function) in AIDS / ARC patients",AIDS related virus,improve immune function in ARC patients
"NC(=O)c1ncn([C@@H]2O[C@H](CO)[C@@H](O)[C@H]2O)n1 [Ribavirin, 1 8 D ribofuranosyl-1,2,4-triazole-3-carboxamide]","clinical benefit (symptoms, immune function) in AIDS / ARC patients",AIDS related virus,improved immune function
same,virus replication in humans,AIDS related virus,inhibited viral replication
same,safety profile,"human, in vivo",acceptable
Cc1ccc(C(=O)Nc2ccc(S(=O)(=O)O)c3cc(S(=O)(=O)O)cc(S(=O)(=O)O)c23)cc1NC(=O)c1cccc(NC(=O)Nc2cccc(C(=O)Nc3cc(C(=O)Nc4ccc(S(=O)(=O)O)c5cc(S(=O)(=O)O)cc(S(=O)(=O)O)c45)ccc3C)c2)c1 [Suramin],"clinical benefit (symptoms, immune function) in AIDS / ARC patients",AIDS related virus,little or no evidence of clinical improvement or immunologic recovery
ammonium 21 tungsto 9 antimoniate [HPA-23],inhibition of reverse transcriptase in several retroviruses,[3],Inhibits reverse transcriptase in several retroviruses in vitro
same,growth of HIV,HIV,some tendency to check the growth of HIV
same,"clinical benefit (symptoms, immune function) in AIDS / ARC patients",AIDS related virus,no therapeutic benefit
α-Interferon,tumor regression in AIDS-related Kaposi's sarcoma,AIDS related virus; AIDS-related Kaposi's sarcoma cases,induced tumor regression in some AIDS-related Kaposi's sarcoma cases
